Experimental data published in ChEMBL document CHEMBL1140805, “1-Toluene-sulfonyl-3-[(3'-hydroxy-5'-substituted)-gamma-butyrolactone]-indoles: synthesis, COX-2 inhibition and anti-cancer activities” (Bioorg Med Chem Lett, 2008).

Assays:
[1] = target: T1, Prostaglandin G/H synthase 1 (Ovis aries) (UniProt P05979); test: Inhibition of ovine COX1 at 10 uM
T1 sequence (whole entry): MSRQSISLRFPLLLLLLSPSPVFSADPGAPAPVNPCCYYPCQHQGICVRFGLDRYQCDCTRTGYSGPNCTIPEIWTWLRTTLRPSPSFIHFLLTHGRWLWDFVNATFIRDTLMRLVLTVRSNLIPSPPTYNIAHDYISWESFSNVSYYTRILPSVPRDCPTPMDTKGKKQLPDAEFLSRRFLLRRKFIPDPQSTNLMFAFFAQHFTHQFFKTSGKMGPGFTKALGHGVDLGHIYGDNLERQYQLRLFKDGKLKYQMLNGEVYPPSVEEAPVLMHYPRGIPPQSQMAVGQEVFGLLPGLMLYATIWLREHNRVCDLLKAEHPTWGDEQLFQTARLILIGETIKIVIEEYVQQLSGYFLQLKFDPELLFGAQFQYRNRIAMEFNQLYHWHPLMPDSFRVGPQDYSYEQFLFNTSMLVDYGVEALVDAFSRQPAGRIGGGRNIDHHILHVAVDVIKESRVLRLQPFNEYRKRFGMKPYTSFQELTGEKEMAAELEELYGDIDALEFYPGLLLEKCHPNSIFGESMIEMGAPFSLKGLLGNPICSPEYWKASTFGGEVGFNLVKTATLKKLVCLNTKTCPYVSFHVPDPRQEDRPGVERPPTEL

[2] = Partition coefficient, log P of the compound; assay type: physicochemical; conditions: octanol/water
[3] = target: T2, Prostaglandin G/H synthase 1 (Ovis aries, UniProt P05979)
T2 sequence (P05979 whole entry): T1 sequence (whole entry)

Ovis aries = species: Ovis aries; test: Selectivity index, Ratio of IC50 for ovine COX2 to IC50 for ovine COX1

SMILES	inhibition [1] [%]	logP [2]	IC50 [3] [µM]	Ratio IC50 (Ovis aries)
Cc1ccc(S(=O)(=O)n2cc([C@@]3(O)C[C@H](CI)OC3=O)c3ccccc32)cc1	40	2.49	> 10	
CCSC[C@H]1C[C@](O)(c2cn(S(=O)(=O)c3ccc(C)cc3)c3ccccc23)C(=O)O1	35	2.38	> 10	< 1000
Cc1ccc(S(=O)(=O)n2cc([C@@]3(O)C[C@H](CSC#N)OC3=O)c3ccccc32)cc1	65	1.78	< 10	> 1000
CS(=O)(=O)c1ccc(C2=C(c3ccccc3)C(=O)OC2)cc1	75			
